Measured values as given in patent US11634396B2 (priority 2021, dated 2023).
Like-named read-outs stand apart in the source and are kept apart here.

Biological target: human mOR (Homo sapiens (Human), UniProt P35372)
Assay: cell-based
Description: CHO Tag-lite human mOR stable cell line from Cisbio (NCBI accession number: NM_000914.3, Bedford, Mass.) were seeded and grown to approximately 80% confluence in Ham F-12 with 10% FBS, 50 U/ml penicillin, 50 μg/ml streptomycin, 2 mM Hepes, and 1 mg/ml geneticin (Invitrogen, Carlsbad, Calif.). Cells were then harvested using accutase (Corning. Coming, N.Y.), centrifuged at 1300 RPM for 5 min, and plated at 5000 cells per 5 μL per well in a 5× dilution of stimulation buffer consisting of the HTRF cAMP Gi kit, water and IBMX at 0.5 mM (Cisbio, Bedford, Mass.) in white HTRF low volume 384 well plates (Cisbio, Bedford, Mass.). Plates were then incubated at 37° C. in 5% CO2 for 10 minutes. For the agonist assay, forskolin was added to a final concentration of 4 μM. […] Test compounds were dissolved in DMSO and water, and then serially diluted to working concentrations such that the concentration of DMSO was less than 0.1%. Diluted test compounds were added at 2.5 μL per well, and plates were incubated at 37° C., and 5% CO2 for 15 minutes, and then at room temperature for 15 minutes. Next 5 μl/well of cAMP Eu-cryptate and 5 μl/well of anti-cAMP-d2 (both diluted 1:20 in lysis buffer) were added, and plates were incubated at room temperature for 1 hour. Following incubation, plates were read in a Synergy Neo2 multi-mode reader (Biotek, Winooski, Vt.). […] For the agonist assay, data was normalized using the maximal DAMGO response. Measurements were performed in triplicate and the dose response was fit using nonlinear regression.

[1] = CHO Tag-lite human mOR stable cell line, forskolin 4 μM and DAMGO at EC90, read-out: mOR cAMP Antagonist Assay IC50

Sequence of human mOR (P35372 whole entry): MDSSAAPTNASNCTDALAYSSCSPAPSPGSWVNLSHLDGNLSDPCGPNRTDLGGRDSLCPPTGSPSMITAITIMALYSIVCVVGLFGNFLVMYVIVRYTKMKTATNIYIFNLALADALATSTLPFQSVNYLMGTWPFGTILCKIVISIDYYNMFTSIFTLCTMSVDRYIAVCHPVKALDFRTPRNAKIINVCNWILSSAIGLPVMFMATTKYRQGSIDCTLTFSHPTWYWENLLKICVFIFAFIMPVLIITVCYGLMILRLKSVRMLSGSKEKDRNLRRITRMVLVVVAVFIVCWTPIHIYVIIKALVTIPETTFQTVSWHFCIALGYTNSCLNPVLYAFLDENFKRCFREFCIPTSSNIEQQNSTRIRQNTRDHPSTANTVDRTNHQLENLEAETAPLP

SMILES: Cc1cc(O)ccc1C[C@@H](CNC(=O)C[C@H](c1ccoc1)C1(C(F)(F)F)CC1)N(C)C [Compound 265, (R)-N-((S)-2-(dimethylamino)-3-(4-hydroxy-2-methylphenyl)propyl)-3-(furan-3-yl)-3-(1-(trifluoromethyl)cyclopropyl)propanamide]
- IC50: < 300 nM

SMILES: CC(C)[C@H](CC(=O)NC[C@H](Cc1ccc2[nH]ncc2c1)N(C)C)c1cccnc1 [Compound 206, (S)-N-((S)-2-(dimethylamino)-3-(1H-indazol-5-yl)propyl)-4-methyl-3-(pyridin-3-yl)pentanamide]
- IC50 [1]: 300 to 3000 nM

SMILES: Cc1c(C[C@@H](CNC(=O)C[C@H](c2cccnc2)C2(C(F)(F)F)CC2)N(C)C)ccc2c1CC(=O)N2 [Compound 180, (R)-N-((S)-2-(dimethylamino)-3-(4-methyl-2-oxoindolin-5-yl)propyl)-3-(pyridin-3-yl)-3-(1-(trifluoromethyl)cyclopropyl)propanamide]
- IC50: < 300 nM

SMILES: Cc1cnc([C@@H](CC(=O)NC[C@H](Cc2ccc(-c3nnc[nH]3)cc2)N(C)C)C2(C(F)(F)F)CC2)s1 [Compound 325, (S)-N-((S)-3-(4-(4H-1,2,4-triazol-3-yl)phenyl)-2-(dimethylamino)propyl)-3-(5-methylthiazol-2-yl)-3-(1-(trifluoromethyl)cyclopropyl) propanamide]
- IC50 [1]: 300 to 3000 nM

SMILES: Cc1ncc([C@@H](CC(=O)NC[C@H](Cc2ccc(C(N)=O)c(F)c2Cl)N(C)C)C2(C(F)(F)F)CC2)s1 [Compound 16, 3-chloro-4-[(2S)-2-(dimethylamino)-3-[(3S)-3-(2-methyl-1,3-thiazol-5-yl)-3-[1-(trifluoromethyl)cyclopropyl]propanamido]propyl]-2-fluorobenzamide]
- IC50: < 300 nM

SMILES: Cc1ncc([C@@H](CC(=O)NC[C@H](Cc2c(C)cc(O)cc2C)N(C)C)C2CC2)s1 [Compound 253, (S)-3-cyclopropyl-N-((S)-2-(dimethylamino)-3-(4-hydroxy-2,6-dimethylphenyl)propyl)-3-(2-methylthiazol-5-yl)propanamide]
- IC50: < 300 nM

SMILES: Cc1cc(O)cc(C)c1C[C@@H](CNC(=O)CC(c1cncc(F)c1)C1(C(F)(F)F)CC1)N(C)C (stereo partly drawn) [Compound 247, N-((S)-2-(dimethylamino)-3-(4-hydroxy-2,6-dimethylphenyl)propyl)-3-(5-fluoropyridin-3-yl)-3-(1-(trifluoromethyl)cyclopropyl)propanamide]
- IC50: < 300 nM

SMILES: Cc1cc(C[C@@H](CNC(=O)C[C@H](c2cccnc2)C2(C(F)(F)F)CC2)N(C)C)cc2cn[nH]c12 [Compound 231, (R)-N-((S)-2-(dimethylamino)-3-(7-methyl-1H-indazol-5-yl)propyl)-3-(pyridin-3-yl)-3-(1-(trifluoromethyl)cyclopropyl)propanamide; bis(trifluoroacetic acid)]
- IC50: < 300 nM

SMILES: CN(C)[C@H](CNC(=O)C[C@H](c1cncc(Cl)c1)C1(C(F)(F)F)CC1)Cc1ccc2[nH]ncc2c1 [Compound 205, (R)-3-(5-chloropyridin-3-yl)-N-((S)-2-(dimethylamino)-3-(1H-indazol-5-yl)propyl)-3-(1-(trifluoromethyl)cyclopropyl) propanamide]
- IC50 [1]: < 300 nM

SMILES: Cc1cc(O)ccc1C[C@@H](CNC(=O)C[C@H](c1cccnc1)C1(C(F)(F)F)CC1)N(C)C [Compound 269, (R)-N-((S)-2-(dimethylamino)-3-(4-hydroxy-2-methylphenyl)propyl)-3-(pyridin-3-yl)-3-(1-(trifluoromethyl)cyclopropyl)propanamide]
- IC50: < 300 nM

SMILES: CN(C)[C@H](CNC(=O)C[C@H](c1cccnc1)C1CC1)Cc1ccc(O)c(Cl)c1 [Compound 281, (S)-N-((S)-3-(3-chloro-4-hydroxyphenyl)-2-(dimethylamino)propyl)-3-cyclopropyl-3-(pyridin-3-yl)propanamide]
- IC50: < 300 nM

SMILES: CN(C)[C@H](CNC(=O)CC(c1ncccn1)C1(C(F)(F)F)CC1)Cc1ccc(C(N)=O)c(F)c1 (stereo partly drawn) [Compound 71, 4-[(2S)-2-(dimethylamino)-3-[3-(pyrimidin-2-yl)-3-[1-(trifluoromethyl)cyclopropyl]propanamido]propyl]-2-fluorobenzamide]
- IC50: < 300 nM

SMILES: COc1ccc(C(CC(=O)NC[C@H](Cc2c(C)cc(O)cc2C)N(C)C)C2(C(F)(F)F)CC2)cn1 (stereo partly drawn) [Compound 244, N-((S)-2-(dimethylamino)-3-(4-hydroxy-2,6-dimethylphenyl)propyl)-3-(6-methoxypyridin-3-yl)-3-(1-(trifluoromethyl)cyclopropyl) propanamide]
- IC50: < 300 nM

SMILES: CNC(=O)c1ccc(C[C@@H](CNC(=O)C[C@H](CC2CC2)c2ccccn2)N(C)C)c(C)c1 [Compound 139, 4-((S)-3-((S)-4-cyclopropyl-3-(pyridin-2-yl)butanamido)-2-(dimethylamino)propyl)-N,3-dimethylbenzamide]
- IC50: > 3000 nM

SMILES: CN(C)[C@H](CNC(=O)C[C@H](CC1CC1)c1ccncc1)Cc1ccc(C(N)=O)c(F)c1 [Compound 62, 4-((S)-3-((S)-4-cyclopropyl-3-(pyridin-4-yl)butanamido)-2-(dimethylamino)propyl)-2-fluorobenzamide]
- IC50: < 300 nM

SMILES: Cc1ncc([C@H](CC(=O)NC[C@H](Cc2ccc(C(N)=O)c(F)c2)N(C)C)C2(C(F)(F)F)CC2)s1 [Compound 58, 4-((S)-2-(dimethylamino)-3-((R)-3-(2-methylthiazol-5-yl)-3-(1-(trifluoromethyl)cyclopropyl)propanamido)propyl)-2-fluorobenzamide]
- IC50: > 3000 nM

SMILES: Cc1c(C[C@@H](CNC(=O)C[C@H](c2ccncc2)C2(C(F)(F)F)CC2)N(C)C)ccc2[nH]c(=O)oc12 [Compound 170, (R)-N-((S)-2-(dimethylamino)-3-(7-methyl-2-oxo-2,3-dihydrobenzo[d]oxazol-6-yl)propyl)-3-(pyridin-4-yl)-3-(1-(trifluoromethyl)cyclopropyl)propanamide]
- IC50: < 300 nM

SMILES: CNC(=O)c1ccc(C[C@@H](CNC(=O)CC(c2cc(C)ccn2)C2(C(F)(F)F)CC2)N(C)C)c(Cl)c1 (stereo partly drawn) [Compound 118, 3-chloro-4-((2S)-2-(dimethylamino)-3-(3-(4-methylpyridin-2-yl)-3-(1-(trifluoromethyl)cyclopropyl)propanamido)propyl)-N-methylbenzamide]
- IC50: > 3000 nM

SMILES: Cc1ccc([C@@H](CC(=O)NC[C@H](Cc2cc(F)c(C(N)=O)c(F)c2)N(C)C)C2(C(F)(F)F)CC2)cn1 [Compound 47, 4-((S)-2-(dimethylamino)-3-((R)-3-(6-methylpyridin-3-yl)-3-(1-(trifluoromethyl)cyclopropyl)propanamido)propyl)-26-difluorobenzamide]
- IC50: < 300 nM

SMILES: CCN(CC)[C@H](CNC(=O)C[C@@H](c1ccccc1)C(C)(C)C)Cc1ccc(C(=O)NC)c(F)c1 [Compound 166, 4-((S)-2-(diethylamino)-3-((R)-4,4-dimethyl-3-phenylpentanamido)propyl)-2-fluoro-N-methylbenzamide]
- IC50: < 300 nM

SMILES: CN(C)[C@H](CNC(=O)C[C@H](c1cccnc1)C1(C(F)(F)F)CC1)Cc1cc(F)c2[nH]ncc2c1 [Compound 230, (R)-N-((S)-2-(dimethylamino)-3-(7-fluoro-1H-indazol-5-yl)propyl)-3-(pyridin-3-yl)-3-(1-(trifluoromethyl)cyclopropyl)propanamide]
- IC50: < 300 nM

SMILES: CN(C)[C@H](CNC(=O)C[C@H](c1cccnc1)C1(C(F)(F)F)CC1)Cc1ccc(O)c(F)c1 [Compound 290, (R)-N-((S)-2-(dimethylamino)-3-(3-fluoro-4-hydroxyphenyl)propyl)-3-(pyridin-3-yl)-3-(1-(trifluoromethyl)cyclopropyl)propanamide]
- IC50: < 300 nM

SMILES: CN(C)[C@H](CNC(=O)C[C@H](c1ccncc1)C1(C(F)(F)F)CC1)Cc1cc2cn[nH]c2cc1Cl [Compound 234, (R)-N-((S)-3-(6-chloro-H-indazol-5-yl)-2-(dimethylamino)propyl)-3-(pyridin-4-yl)-3-(1-(trifluoromethyl)cyclopropyl)propanamide]
- IC50 [1]: < 300 nM

SMILES: CN(C)[C@H](CNC(=O)CC(c1cccnc1)C1(C(F)(F)F)CC1)Cc1ccc(O)cc1 (stereo partly drawn) [Compound 291, N-((S)-2-(dimethylamino)-3-(4-hydroxyphenyl)propyl)-3-(pyridin-3-yl)-3-(1-(trifluoromethyl)cyclopropyl)propanamide]
- IC50: < 300 nM

SMILES: Cc1cc([C@@H](CC(=O)NC[C@H](Cc2ccc(O)cc2)N(C)C)C2(C(F)(F)F)CC2)cs1 [Compound 322, (S)-N-((S)-2-(dimethylamino)-3-(4-hydroxyphenyl)propyl)-3-(5-methylthiophen-3-yl)-3-(1-(trifluoromethyl)cyclopropyl)propanamide]
- IC50: < 300 nM

SMILES: CN(C)[C@H](CNC(=O)C[C@H](c1ccsc1)C1(C(F)(F)F)CC1)Cc1ccc(O)cc1 [Compound 294, (S)-N-((S)-2-(dimethylamino)-3-(4-hydroxyphenyl)propyl)-3-(thiophen-3-yl)-3-(1-(trifluoromethyl)cyclopropyl)propanamide]
- IC50: < 300 nM

SMILES: CNC(=O)c1ccc(C[C@@H](CNC(=O)C[C@@H](c2ccccc2)C2(C(F)(F)F)CC2)N(C)C)cc1F [Compound 154, 4-((S)-2-(dimethylamino)-3-((S)-3-phenyl-3-(1-(trifluoromethyl)cyclopropyl)propanamido)propyl)-2-fluoro-N-methylbenzamide]
- IC50: < 300 nM
